Test results taken from PMC5122889, “Sigma-1 Receptor Agonism Promotes Mechanical Allodynia After Priming the Nociceptive System with Capsaicin” (Scientific Reports, 2016).
Counter-ions that a name gives are not always drawn. Like-named read-outs stand apart in the source and are kept apart here.

Experiments:
[1] = molecular target: T1, sigma-1 receptor (Mus musculus, UniProt O55242); test: [3H](+)-pentazocine competition radioligand binding in mouse brain membranes
T1 construct: gene Sigmar1; native receptor in wild-type mouse brain crude synaptosomal membranes (P2 fraction)
T1 sequence (O55242 whole entry): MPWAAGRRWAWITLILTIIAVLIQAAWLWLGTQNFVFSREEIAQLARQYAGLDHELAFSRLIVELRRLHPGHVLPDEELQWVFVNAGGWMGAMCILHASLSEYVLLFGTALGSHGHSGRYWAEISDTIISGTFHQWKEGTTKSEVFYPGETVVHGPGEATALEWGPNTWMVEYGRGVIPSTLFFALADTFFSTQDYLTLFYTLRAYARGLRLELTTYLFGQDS

[2] = in vitro; set-up: metabolic stability in mouse liver microsomes with NADPH-regenerating system, parent compound by UHPLC-MS/MS; conditions: mouse liver microsomes
Protocol: (§1) Incubation of the test compounds in mouse or human liver microsomes (Xenotech, Lenexa, KS, USA) was done with a previously described method[55] with modifications. We tested the metabolic stability of PRE-084 and PGB, the latter of which was used as a control because of its poor hepatic metabolism. Briefly, the drugs were incubated in 96-well plates at a concentration of 1 μM and at 37 °C during 1 h under standard incubation conditions: sodium-potassium phosphate buffer (50 mM, pH 7.4), MgCl2 (3 mM), the NADPH-regenerating system and cytochrome P450 content (0.3 nmol/mL). Aliquots of the reaction mixture were obtained at 0, 10, 20, 40 and 60 min with an equal volume of cold acetonitrile. The assay was done in a robotic [compound left out] handling system (Freedom Evo Tecan, Männedorf, Switzerland). Upon centrifugation of the resulting mixture, supernatants were analyzed with a generic ultra-high performance [compound left out] chromatography–tandem mass spectrometry method. For the in vitro metabolic stability in liver microsomes, Ln-linear plots of the percentage of compound remaining based on chromatographic peak area versus time were generated, and the slope was calculated by linear fitting of the curve. The in vitro metabolic t1/2 was estimated with the equation 0.693/k where k is the biotransformation rate constant and corresponds to the slope of the ln-linear curve. Liver microsome Cl int was calculated with the equation [drawing 1]

[3] = in vitro; set-up: metabolic stability in human liver microsomes with NADPH-regenerating system, parent compound by UHPLC-MS/MS; conditions: human liver microsomes
Protocol: as §1

[4] = in vitro; set-up: metabolic stability in liver microsomes with NADPH, UHPLC-MS/MS quantitation of parent compound; conditions: for remaining at 1 h, 1 µM: pH 7.4, liver microsomes, read-out: % parent compound remaining at 1 h; for half-life at 1 µM / microsomal CLint at 1 µM: pH 7.4, liver microsomes; for microsomal CLint at 1 µM: read-out: Cl int (µL/min/mg protein)
Protocol: as §1

Row | Compound | IC50 [1] [nM] | remaining at 1 h, 1 µM ([2]; pH 7.4, liver microsomes, read-out: % parent compound remaining at 1 h (mouse)) [%] | microsomal CLint at 1 µM ([2]; pH 7.4, liver microsomes, read-out: Cl int (mouse)) [µL/min/mg] | half-life at 1 µM ([2]; pH 7.4, liver microsomes, read-out: t1/2 (mouse)) [min] | remaining at 1 h, 1 µM ([3]; pH 7.4, liver microsomes, read-out: % parent compound remaining at 1 h (human)) [%] | microsomal CLint at 1 µM ([3]; pH 7.4, liver microsomes, read-out: Cl int (human)) [µL/min/mg] | half-life at 1 µM ([3]; pH 7.4, liver microsomes, read-out: t1/2 (human)) [h] | remaining at 1 h, 1 µM ([4]; human liver microsomes) [%] | remaining at 1 h, 1 µM ([4]; mouse liver microsomes) [%] | half-life at 1 µM ([4]; human liver microsomes) [h] | microsomal CLint at 1 µM ([4]; human liver microsomes) [µL/min/mg] | half-life at 1 µM ([4]; mouse liver microsomes) [h] | microsomal CLint at 1 µM ([4]; mouse liver microsomes) [µL/min/mg]
1 | O=C(OCCN1CCOCC1)C1(c2ccccc2)CCCCC1 [PRE, 2-(4-morpholinethyl)1-phenylcyclohexanecarboxylate) hydrochloride] | 188 ± 18.8 | 0 | 949 ± 203 | 3 ± 0.67 | 4 ± 0.58 | 103 ± 5 | 0.217 ± 0.00967 | – | – | – | – | – | –
2 | CC(C)C[C@H](CN)CC(=O)O [Pregabalin] | – | – | – | – | – | – | – | 95 ± 2.96 | 97 ± 2.67 | 17.9 ± 10.8 | 2.3 ± 0.94 | 10 ± 3.03 | 4.5 ± 1.2
